Source: article PMC12540964 (AMB Express, 2025)
In brackets after ≈: the same amount, converted by molar mass. Like-named read-outs stand apart in the source and are kept apart here. Marks after values point to notes of the source that are not given here.

Tests used:
DPPH test = conditions: radical scavenging, 30 min, 517 nm
Procedure: This assay used DPPH radical to assess the free radical-scavenging ability. Samples dissolved in methanol were mixed with a methanolic solution of DPPH and incubated, in triplicate, at ambient temperature for 30 min (El Omari et al. [2023]). Absorbance was read at 517 nm, and the percentage of DPPH radical scavenging and the inhibition in IC50 (μg/mL) were calculated. Trolox served as a positive control.

α-glucosidase = molecular target: T1, α-glucosidase (Saccharomyces cerevisiae, UniProt P53341); experiment: α-Glucosidase inhibitory test; format: biochemical
T1 construct: purchased
T1 sequence (P53341 whole entry): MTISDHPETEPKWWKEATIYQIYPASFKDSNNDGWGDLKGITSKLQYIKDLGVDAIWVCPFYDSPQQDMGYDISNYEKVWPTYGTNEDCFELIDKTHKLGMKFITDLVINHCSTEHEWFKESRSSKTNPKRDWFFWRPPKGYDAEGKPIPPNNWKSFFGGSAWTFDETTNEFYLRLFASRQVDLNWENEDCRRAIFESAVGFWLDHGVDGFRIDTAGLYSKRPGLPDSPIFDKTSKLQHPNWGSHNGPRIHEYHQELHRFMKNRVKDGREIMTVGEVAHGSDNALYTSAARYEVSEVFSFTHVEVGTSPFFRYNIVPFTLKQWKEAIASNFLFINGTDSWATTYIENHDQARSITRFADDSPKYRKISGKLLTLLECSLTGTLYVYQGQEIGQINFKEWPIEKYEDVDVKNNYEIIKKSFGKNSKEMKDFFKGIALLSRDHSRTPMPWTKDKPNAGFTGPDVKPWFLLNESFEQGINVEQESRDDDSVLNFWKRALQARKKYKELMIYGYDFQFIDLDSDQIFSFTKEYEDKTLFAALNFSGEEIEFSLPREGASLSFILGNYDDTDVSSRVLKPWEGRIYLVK
Procedure: (§1) The α-glucosidase from Saccharomyces cerevisiae and the α-amylase from Bacillus licheniformis were also obtained from reliable commercial sources. Additional reagents were carefully selected from reputable suppliers. Mueller–Hinton agar was sourced from Biokar in Beauvais, France. All other chemicals used are of analytical grade.
The inhibition of α-glucosidase action was assessed using the pNPG substrate as previously detailed (Bouyahya et al. [2021]). A mixture of 200 μL of the samples and 100 μL SPB (0.1 M & pH = 6.7), mixed with α-glucosidase (0.1 U/mL), underwent incubation at 37 °C/10 min. Next, 200 μL of pNPG (1 mM) solution in SPB (0.1 M & pH = 6.7) was added, then incubated at 37 °C/30 min. The measurement of α-glucosidase inhibition was done by measuring the OD (405 nm) after adding 1 mL of Na2CO3 (0.1 M).

α-amylase = molecular target: T2, α-amylase (Bacillus licheniformis, UniProt P06278); experiment: α-Amylase inhibitory test; format: biochemical
T2 construct: purchased
T2 sequence (P06278 30-512): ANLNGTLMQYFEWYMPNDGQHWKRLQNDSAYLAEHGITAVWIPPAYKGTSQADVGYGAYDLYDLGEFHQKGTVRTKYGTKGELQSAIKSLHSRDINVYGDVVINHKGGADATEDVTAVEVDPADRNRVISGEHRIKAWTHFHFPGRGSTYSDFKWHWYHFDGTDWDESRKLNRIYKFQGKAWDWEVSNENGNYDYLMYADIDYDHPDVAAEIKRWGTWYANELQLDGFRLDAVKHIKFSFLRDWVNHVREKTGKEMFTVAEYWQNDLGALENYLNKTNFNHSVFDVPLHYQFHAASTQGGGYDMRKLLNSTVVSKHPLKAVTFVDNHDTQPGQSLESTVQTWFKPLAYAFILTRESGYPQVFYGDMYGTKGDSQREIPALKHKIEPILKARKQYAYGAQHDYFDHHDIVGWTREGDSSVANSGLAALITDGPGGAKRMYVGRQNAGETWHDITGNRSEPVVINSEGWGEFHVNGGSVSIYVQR
Procedure: as §1
Initially, 250 μL of each sample was mixed with 250 μL of sodium phosphate buffer (SPB) (0.02 M & pH = 6.9) and α-amylase enzyme (240 U/mL). The blend was then incubated at 37 °C/20 min. Then, a 1% starch solution (250 μL) in SPB was added, followed by incubation at 37 °C/15 min. Thereafter, 1 mL of dinitrosalicylic acid (DNS) was also added, and the mix was heated for 10 min (Bouyahya et al. [2019a], [b]; Omari et al. [2023]). The solution was then diluted with 2 mL of sterile water, and the OD (540 nm) was measured. […] The % of inhibition was calculated using the formula: [drawing 1]

[1] = system: Staphylococcus aureus (ATCC 29213); experiment: Disk diffusion method (inhibition zone diameter); format: cell-based; conditions: S. aureus, Gram-positive
Procedure: (§2) The strains Escherichia coli (ATCC 25922), Pseudomonas aeruginosa NIH, Listeria monocytogenes (ATCC 13932), and Staphylococcus aureus (ATCC 29213) were used. After overnight incubation at 30 °C, the inhibition zone diameters (IZD) were measured in millimeters (mm). Next, the microdilution method served to assess the minimum inhibitory concentration (MIC) and minimum bactericidal concentration (MBC) (Bouyahya et al. [2020a], [b]).

[2] = system: Listeria monocytogenes (ATCC 13932); experiment: Disk diffusion method (inhibition zone diameter); format: cell-based; conditions: L. monocytogenes, Gram-positive
Procedure: as §2

[3] = system: Pseudomonas aeruginosa NIH; experiment: Disk diffusion method (inhibition zone diameter); format: cell-based; conditions: P. aeruginosa, Gram-negative
Procedure: as §2

[4] = system: Escherichia coli (ATCC 25922); experiment: Disk diffusion method (inhibition zone diameter); format: cell-based; conditions: E. coli, Gram-negative
Procedure: as §2

[5] = Reducing ferric power test (FRAP); conditions: 700 nm
Procedure: CEEO, carvacrol, menthol, and tricosane were mixed with phosphate buffer and potassium ferricyanide solution, incubated, and treated with trichloroacetic acid. After centrifugation, the upper layer was analyzed for absorbance (700 nm) with Trolox serving as a reference. The assay was done in triplicate, and the IC50 (μg/mL) was calculated (El Omari et al. [2023]).

elastase = elastase (Sus scrofa, UniProt P00772); experiment: Elastase inhibitory assay; format: biochemical; conditions: 410 nm
Sequence of elastase (P00772 27-266): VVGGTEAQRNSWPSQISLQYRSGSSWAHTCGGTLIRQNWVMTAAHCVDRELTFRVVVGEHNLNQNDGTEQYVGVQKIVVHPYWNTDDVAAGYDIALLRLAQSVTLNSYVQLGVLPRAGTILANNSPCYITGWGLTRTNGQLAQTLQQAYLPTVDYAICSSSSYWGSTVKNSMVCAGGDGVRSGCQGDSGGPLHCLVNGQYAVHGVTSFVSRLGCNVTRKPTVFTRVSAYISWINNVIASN
Procedure: Then, 200 µL of an elastase solution prepared in Tris–HCl buffer (0.2 M, pH 8.0) was mixed with 50 µL of each sample. Following a 15-min incubation at 25 °C, 200 µL of N-succinyl-Ala-Ala-p-nitroanilide solution was added, and the reaction mixtures were homogenized. Absorbances were recorded at 410 nm after an additional 20-min incubation at 25 °C. The data obtained were used to determine the IC50 and to calculate the percent inhibition of elastase.

[6] = system: Staphylococcus aureus (ATCC 29213); experiment: Microdilution method (MIC, MBC); format: cell-based
Procedure: as §2

[7] = system: Listeria monocytogenes (ATCC 13932); experiment: Microdilution method (MIC, MBC); format: cell-based; conditions: for MBC / MIC: Listeria monocytogenes; for MBC/MIC: 1 suggests bactericidal
Procedure: as §2

[8] = system: Pseudomonas aeruginosa NIH; experiment: Microdilution method (MIC, MBC); format: cell-based; conditions: for MBC / MIC: Pseudomonas aeruginosa; for MBC: read-out: MBC (minimum bactericidal concentration); for MIC: read-out: MIC (minimum inhibitory concentration); for MBC/MIC: 1 suggests bactericidal
Procedure: as §2

[9] = system: Escherichia coli (ATCC 25922); experiment: Microdilution method (MIC, MBC); format: cell-based
Procedure: as §2

[10] = ABTS radical scavenging activity
Procedure: The ABTS cation radical was generated from the reaction between ABTS solution and potassium persulfate with Trolox as a positive control. The assay was performed in triplicate and expressed in IC50 (μg/mL) (El Omari et al. [2023]).

tyrosinase = tyrosinase (Agaricus bisporus, UniProt C7FF04); design: method as in El Khoury et al. [2019]; conditions: carvacrol from Origanum EOs; ref El Khoury et al. [2019]; cited from earlier work
Sequence of tyrosinase (C7FF04 1-392): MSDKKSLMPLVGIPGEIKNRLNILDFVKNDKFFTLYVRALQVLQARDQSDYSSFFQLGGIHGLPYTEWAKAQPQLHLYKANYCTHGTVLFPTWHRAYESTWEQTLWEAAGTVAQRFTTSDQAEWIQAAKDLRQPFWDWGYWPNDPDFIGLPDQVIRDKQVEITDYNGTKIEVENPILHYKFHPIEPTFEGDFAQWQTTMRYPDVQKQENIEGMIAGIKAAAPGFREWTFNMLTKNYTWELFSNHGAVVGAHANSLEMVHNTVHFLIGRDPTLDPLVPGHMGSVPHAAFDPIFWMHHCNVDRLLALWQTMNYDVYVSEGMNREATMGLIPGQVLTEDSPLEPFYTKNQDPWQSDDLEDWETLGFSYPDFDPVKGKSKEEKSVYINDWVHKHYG

[11] = Elastase IC50, N-succinyl-Ala-Ala-p-nitroanilide
[12] = ATCC29213, S. aureus, read-out: MBC (minimum bactericidal concentration)
[13] = ATCC29213, S. aureus, read-out: MIC (minimum inhibitory concentration)
[14] = ATCC13932, L. monocytogenes, read-out: MBC (minimum bactericidal concentration)
[15] = ATCC13932, L. monocytogenes, read-out: MIC (minimum inhibitory concentration)
[16] = ATCC25922, E. coli, read-out: MBC (minimum bactericidal concentration)
[17] = ATCC25922, E. coli, read-out: MIC (minimum inhibitory concentration)

| SMILES | DPPH IC50 (DPPH test) | IC50 (α-glucosidase) [µM] | IC50 (α-amylase) [µM] | IZD (inhibition zone diameter) [1] | IZD (inhibition zone diameter) [2] | IZD (inhibition zone diameter) [3] | IZD (inhibition zone diameter) [4] | FRAP IC50 [5] | IC50 (elastase; [11]) [µM] | MBC [6, 12] [µg/mL] | MIC [6, 13] [µg/mL] | MBC [7, 14] [µg/mL] | MIC [7, 15] [µg/mL] | MBC ([8]; P. aeruginosa) [µg/mL] | MIC ([8]; P. aeruginosa) [µg/mL] | MBC [9, 16] [µg/mL] | MIC [9, 17] [µg/mL] | ABTS IC50 [10] | MBC/MIC ([7]; L. monocytogenes) | MBC/MIC ([8]; P. aeruginosa) | other results |
| --- | --- | --- | --- | --- | --- | --- | --- | --- | --- | --- | --- | --- | --- | --- | --- | --- | --- | --- | --- | --- | --- |
| CC1CCC(C(C)C)C(O)C1 (stereo not shown) [Menthol, menthol] | 58.89 ± 4.03^a µg/mL | 1170 | 3020 | 32 ± 2.64^a mm | 26.33 ± 1.52^b mm | 18 ± 4.5^b mm | 14 ± 2^a mm | 57.93 ± 15.63^f µg/mL | 717 | 1 (≈ 6.4 µM) | 0.5 (≈ 3.2 µM) | 0.5 (≈ 3.2 µM) | 0.25 (≈ 1.6 µM) | 1 (≈ 6.4 µM) | 0.25 (≈ 1.6 µM) | 2 (≈ 12.8 µM) | 0.5 (≈ 3.2 µM) | 71.76 ± 3.16^a µg/mL |  |  |  |
| Cc1ccc(C(C)C)cc1O [Carvacrol, carvacrol] | 48.06 ± 4.31^h µg/mL | 1340 | 3770 | 35.33 ± 1.52^a mm | 33 ± 2.64^a mm | 29 ± 2.64^c mm | 31.33 ± 2.51^b mm | 59.96 ± 2.60^f µg/mL | 830 |  |  |  |  |  |  |  |  | 81.41 ± 4.31^b µg/mL | 1 | 1 | tyrosinase inhibition (tyrosinase): 56.55%; MBC ([6]; ATCC29213, read-out: MBC (minimum bactericidal concentration)): 0.025 µg/mL (≈ 0.166 µM); MIC ([6]; ATCC29213, read-out: MIC (minimum inhibitory concentration)): 0.0125 µg/mL (≈ 0.0832 µM); MBC ([7]; ATCC13932, read-out: MBC (minimum bactericidal concentration)): 0.125 µg/mL (≈ 0.832 µM); MIC ([7]; ATCC13932, read-out: MIC (minimum inhibitory concentration)): 0.125 µg/mL (≈ 0.832 µM); MBC [8]: 0.5 µg/mL (≈ 3.33 µM); MIC [8]: 0.5 µg/mL (≈ 3.33 µM); MBC ([9]; ATCC25922, read-out: MBC (minimum bactericidal concentration)): 0.25 µg/mL (≈ 1.66 µM); MIC ([9]; ATCC25922, read-out: MIC (minimum inhibitory concentration)): 0.125 µg/mL (≈ 0.832 µM) |
| Cc1c(C)c2c(c(C)c1O)CCC(C)(C(=O)O)O2 (stereo not shown) [Trolox, reference compound] | 34.12 ± 2.13^h µg/mL |  |  |  |  |  |  | 54.74 ± 3.85^f µg/mL |  |  |  |  |  |  |  |  |  | 55.25 ± 4.19^b µg/mL |  |  |  |
| O=C(N[C@H](CO)[C@H](O)c1ccc([N+](=O)[O-])cc1)C(Cl)Cl [Chloramphenicol, reference compound] |  |  |  |  |  |  |  |  |  | 32 (≈ 99 µM) | 8 (≈ 24.8 µM) | 32 (≈ 99 µM) | 16 (≈ 49.5 µM) | 64 (≈ 198 µM) | 64 (≈ 198 µM) | 32 (≈ 99 µM) | 8 (≈ 24.8 µM) |  |  |  |  |
| CCCCCCCCCCCCCCCCCCCCCCC [Tricosane, tricosane] | 91.03 ± 0.3^b µg/mL | 592 | 1190 | 29 ± 4.58^a mm | 31.67 ± 4.04^b mm | 17 ± 2.51^b mm | 20.67 ± 2.08^C mm | 103.9 ± 2.48 µg/mL |  | 0.5 (≈ 1.54 µM) | 0.125 (≈ 0.385 µM) | 0.25 (≈ 0.77 µM) | 0.25 (≈ 0.77 µM) | 0.5 (≈ 1.54 µM) | 0.5 (≈ 1.54 µM) | 1 (≈ 3.08 µM) | 0.25 (≈ 0.77 µM) | 120.34 ± 2.97 µg/mL | 1 | 1 | IC50 (elastase; N-succinyl-Ala-Ala-p-nitroanilide, read-out: Elastase IC50 (converted)): 384 µM |
